Tested on: T1, monoclonal antibody 1B11 (LIN/1B11)
T1 construct: whole monoclonal antibody, IgG1
Experiment: indirect competitive ELISA with LIN-NaIO4-OVA coating antigen
Format: binding

IC50: 0.57 ± 0.03 µg/kg
SMILES: CCC[C@@H]1C[C@@H](C(=O)N[C@@H]([C@H]2O[C@H](SC)[C@H](O)[C@@H](O)[C@H]2O)[C@@H](C)O)N(C)C1 [LIN, lincomycin]
